{
  "source": "ChEMBL document CHEMBL5705896",
  "about": "(ACS Chem Biol, 2013)",
  "key": {"[1]": {"experiment": "Toxicity in Swiss albino mouse assessed as drug tolerance at 15 to 150 mg/kg administered as single ip dose measured upto 24 hrs", "type": "organism-based", "details": "in vivo, dose 15-150 mg/kg"}, "[2]": {"molecular_target": "Histamine H2 receptor (Homo sapiens) (UniProt P25021)", "experiment": "Inhibition of H2 receptor (unknown origin) at 10 uM by radioligand binding assay relative to control"}, "[3]": {"tested_on": "MCF7", "experiment": "Effect on EZH2 level in human MCF7 cells at 5 uM incubated for 3 days by immunofluorescence staining based analysis", "type": "functional, cell-based", "details": "time 3.0 day"}, "[4]": {"molecular_target": "5-hydroxytryptamine receptor 6 (Homo sapiens) (UniProt P50406)", "experiment": "Inhibition of 5-HT6 receptor (unknown origin) at 10 uM by radioligand binding assay relative to control"}, "[5]": {"tested_on": "DB", "experiment": "Downregulation of EZH2 level in human DB cells at 3000 nM measured after 3 days", "type": "functional, cell-based", "details": "time 3.0 day"}, "[6]": {"experiment": "Toxicity in Swiss albino mouse assessed as adverse effect at 15 to 150 mg/kg administered as single ip dose measured upto 24 hrs", "type": "organism-based", "details": "in vivo, dose 15-150 mg/kg"}, "[7]": {"molecular_target": "N-lysine methyltransferase SMYD2 (Homo sapiens, UniProt Q9NRG4)", "experiment": "Inhibition of SMYD2 (unknown origin) using [3H-SAM] as substrate incubated for 1 hr by scintillation proximity assay"}, "[8]": {"molecular_target": "Testis-specific serine/threonine-protein kinase 1 (Homo sapiens) (UniProt Q9BXA7)", "experiment": "Inhibition of full length human N-terminal GST tagged TSSK1 (1 to 367 end residues) expressed in baculovirus expression system using GS as peptide at 10 uM by mobility shift assay relative to control"}, "[9]": {"molecular_target": "Alpha-2B adrenergic receptor (Homo sapiens) (UniProt P18089)", "experiment": "Inhibition of Alpha2B receptor (unknown origin) at 10 uM by radioligand binding assay relative to control"}, "[10]": {"molecular_target": "Protein-tyrosine kinase 2-beta (Homo sapiens) (UniProt Q14289)", "experiment": "Inhibition of full length human N-terminal GST tagged PYK2 (1 to 967 end residues) expressed in baculovirus expression system using Blk/lyntide as substrate at 10 uM by mobility shift assay relative to control"}, "[11]": {"molecular_target": "Vascular endothelial growth factor receptor 2 (Homo sapiens) (UniProt P35968)", "experiment": "Inhibition of human cytoplasmic domain N-terminal GST tagged KDR (790 to 1356 end residues) expressed in baculovirus expression system using CSKtide as substrate at 10 uM by mobility shift assay relative to control"}, "[12]": {"molecular_target": "Histone-lysine N-methyltransferase, H3 lysine-79 specific (Homo sapiens, UniProt Q8TEK3)", "experiment": "Inhibition of DOT1L (unknown origin) using [3H-SAM] as substrate incubated for 1 hr by scintillation proximity assay"}, "[13]": {"molecular_target": "Histone-lysine N-methyltransferase EHMT2 (Homo sapiens, UniProt Q96KQ7)", "experiment": "Inhibition of G9a (unknown origin) using [3H-SAM] as substrate incubated for 1 hr by scintillation proximity assay"}, "[14]": {"molecular_target": "N-lysine methyltransferase KMT5A (Homo sapiens, UniProt Q9NQR1)", "experiment": "Inhibition of SETD8 (unknown origin) using [3H-SAM] as substrate incubated for 1 hr by scintillation proximity assay"}, "[15]": {"molecular_target": "DNA (cytosine-5)-methyltransferase 1 (Homo sapiens, UniProt P26358)", "sequence (P26358 whole entry)": "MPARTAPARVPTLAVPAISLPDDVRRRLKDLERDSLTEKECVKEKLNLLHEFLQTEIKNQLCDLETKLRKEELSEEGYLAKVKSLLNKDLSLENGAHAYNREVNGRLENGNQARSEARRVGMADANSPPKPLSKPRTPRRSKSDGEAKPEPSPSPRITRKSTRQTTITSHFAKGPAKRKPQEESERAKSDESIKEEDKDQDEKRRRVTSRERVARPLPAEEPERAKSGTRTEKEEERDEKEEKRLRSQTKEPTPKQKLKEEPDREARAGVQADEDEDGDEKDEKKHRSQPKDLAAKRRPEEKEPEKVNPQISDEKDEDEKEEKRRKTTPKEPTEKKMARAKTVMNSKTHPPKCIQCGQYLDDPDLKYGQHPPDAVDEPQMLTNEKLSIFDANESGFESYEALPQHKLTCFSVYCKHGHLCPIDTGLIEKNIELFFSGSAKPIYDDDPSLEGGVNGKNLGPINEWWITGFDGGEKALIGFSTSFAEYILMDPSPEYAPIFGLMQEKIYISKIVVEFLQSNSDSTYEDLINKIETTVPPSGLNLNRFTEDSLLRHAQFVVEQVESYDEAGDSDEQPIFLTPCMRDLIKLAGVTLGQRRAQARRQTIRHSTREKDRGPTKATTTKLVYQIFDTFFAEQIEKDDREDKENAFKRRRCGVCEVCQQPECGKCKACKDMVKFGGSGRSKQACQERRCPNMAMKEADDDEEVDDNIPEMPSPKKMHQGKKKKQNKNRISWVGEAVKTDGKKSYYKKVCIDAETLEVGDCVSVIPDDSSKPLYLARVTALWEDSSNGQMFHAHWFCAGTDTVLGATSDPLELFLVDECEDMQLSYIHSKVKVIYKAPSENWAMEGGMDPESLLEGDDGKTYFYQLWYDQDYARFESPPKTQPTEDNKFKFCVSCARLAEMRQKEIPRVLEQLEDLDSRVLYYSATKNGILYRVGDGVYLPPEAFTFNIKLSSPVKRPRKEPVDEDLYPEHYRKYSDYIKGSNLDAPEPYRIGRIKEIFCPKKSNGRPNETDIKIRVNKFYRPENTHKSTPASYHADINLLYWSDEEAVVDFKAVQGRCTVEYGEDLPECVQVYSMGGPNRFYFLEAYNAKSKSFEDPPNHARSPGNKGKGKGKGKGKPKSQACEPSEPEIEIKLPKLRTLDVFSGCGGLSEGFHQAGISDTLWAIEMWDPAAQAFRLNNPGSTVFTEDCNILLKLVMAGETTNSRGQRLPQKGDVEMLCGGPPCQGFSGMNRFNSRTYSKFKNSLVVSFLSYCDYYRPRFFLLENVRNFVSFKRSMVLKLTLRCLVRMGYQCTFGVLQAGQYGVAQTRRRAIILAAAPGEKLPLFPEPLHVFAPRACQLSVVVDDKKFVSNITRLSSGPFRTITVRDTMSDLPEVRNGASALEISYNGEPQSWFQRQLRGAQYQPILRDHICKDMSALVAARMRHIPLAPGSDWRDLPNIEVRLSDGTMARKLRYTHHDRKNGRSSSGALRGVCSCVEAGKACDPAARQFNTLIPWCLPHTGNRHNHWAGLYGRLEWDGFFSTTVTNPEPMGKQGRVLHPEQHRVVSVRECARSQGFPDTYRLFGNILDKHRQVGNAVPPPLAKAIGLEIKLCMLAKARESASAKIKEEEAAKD", "experiment": "Inhibition of DNMT1 (unknown origin) using hemimethylated dsDNA as substrate incubated for 1 hr by scintillation proximity assay"}, "[16]": {"molecular_target": "Dual specificity tyrosine-phosphorylation-regulated kinase 1B (Homo sapiens) (UniProt Q9Y463)", "experiment": "Inhibition of full length human N-terminal GST tagged DYRK1B (1 to 629 end residues) expressed in baculovirus expression system using DYRKtide-F as substrate at 10 uM by mobility shift assay relative to control"}, "[17]": {"molecular_target": "Histone-lysine N-methyltransferase KMT5C (Homo sapiens, UniProt Q86Y97)", "sequence (Q86Y97 whole entry)": "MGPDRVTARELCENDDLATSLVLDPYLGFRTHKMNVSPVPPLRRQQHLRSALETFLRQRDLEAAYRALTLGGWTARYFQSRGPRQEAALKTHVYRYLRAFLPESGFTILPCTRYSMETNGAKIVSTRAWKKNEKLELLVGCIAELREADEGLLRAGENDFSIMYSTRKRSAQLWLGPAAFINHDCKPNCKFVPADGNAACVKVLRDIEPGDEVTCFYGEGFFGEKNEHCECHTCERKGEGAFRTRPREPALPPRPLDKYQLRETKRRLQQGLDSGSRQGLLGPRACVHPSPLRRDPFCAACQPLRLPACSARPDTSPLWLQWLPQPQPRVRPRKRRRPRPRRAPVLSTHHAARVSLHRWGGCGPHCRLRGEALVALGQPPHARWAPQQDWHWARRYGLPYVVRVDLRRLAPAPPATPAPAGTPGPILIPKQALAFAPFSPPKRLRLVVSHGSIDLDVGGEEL", "experiment": "Inhibition of SUV420H2 (unknown origin) using [3H-SAM] as substrate incubated for 1 hr by scintillation proximity assay"}, "[18]": {"experiment": "Cmax in Swiss albino mouse at 15 to 150 mg/kg administered as single ip dose measured upto 24 hrs", "type": "ADME, organism-based", "details": "in vivo, dose 15-150 mg/kg"}, "[19]": {"molecular_target": "MAP kinase-activated protein kinase 2 (Homo sapiens) (UniProt P49137)", "experiment": "Inhibition of full length human N-terminal GST tagged MAPKAPK2 1 to 400 end residues) expressed in baculovirus expression system using GS as peptide at 10 uM by mobility shift assay relative to control"}, "[20]": {"molecular_target": "Alpha-1D adrenergic receptor (Homo sapiens) (UniProt P25100)", "sequence (P25100 whole entry)": "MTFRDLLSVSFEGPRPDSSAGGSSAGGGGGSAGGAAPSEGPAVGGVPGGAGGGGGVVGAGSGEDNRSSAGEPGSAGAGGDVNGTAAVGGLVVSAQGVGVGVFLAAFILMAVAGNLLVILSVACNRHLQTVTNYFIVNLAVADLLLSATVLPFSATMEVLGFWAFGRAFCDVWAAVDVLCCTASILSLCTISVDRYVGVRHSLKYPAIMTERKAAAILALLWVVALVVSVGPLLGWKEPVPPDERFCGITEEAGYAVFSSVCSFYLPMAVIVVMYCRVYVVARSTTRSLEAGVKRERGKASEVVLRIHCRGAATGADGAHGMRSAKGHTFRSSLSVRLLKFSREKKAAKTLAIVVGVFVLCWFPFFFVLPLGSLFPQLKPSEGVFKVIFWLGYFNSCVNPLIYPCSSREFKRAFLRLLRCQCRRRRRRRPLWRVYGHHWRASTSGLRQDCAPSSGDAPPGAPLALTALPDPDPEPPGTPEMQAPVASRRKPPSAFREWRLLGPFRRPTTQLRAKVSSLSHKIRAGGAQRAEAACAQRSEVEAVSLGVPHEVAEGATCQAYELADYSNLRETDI", "experiment": "Inhibition of Alpha1D receptor (unknown origin) at 10 uM by radioligand binding assay relative to control"}, "[21]": {"molecular_target": "Protein arginine N-methyltransferase 1 (Homo sapiens, UniProt Q99873)", "sequence (Q99873 whole entry)": "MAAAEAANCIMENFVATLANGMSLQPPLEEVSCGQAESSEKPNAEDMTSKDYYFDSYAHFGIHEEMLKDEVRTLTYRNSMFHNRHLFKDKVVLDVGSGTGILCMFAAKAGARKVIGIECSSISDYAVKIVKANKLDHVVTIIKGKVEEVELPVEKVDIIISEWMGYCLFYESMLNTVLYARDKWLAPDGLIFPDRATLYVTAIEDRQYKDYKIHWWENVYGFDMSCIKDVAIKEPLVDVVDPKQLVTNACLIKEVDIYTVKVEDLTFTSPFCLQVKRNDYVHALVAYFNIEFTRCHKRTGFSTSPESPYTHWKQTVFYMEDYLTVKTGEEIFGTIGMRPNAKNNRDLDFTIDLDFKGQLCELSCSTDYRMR", "experiment": "Inhibition of PRMT1 (unknown origin) using [3H-SAM] as substrate incubated for 1 hr by scintillation proximity assay"}, "[22]": {"molecular_target": "Receptor-type tyrosine-protein kinase FLT3 (Homo sapiens) (UniProt P36888)", "experiment": "Inhibition of human cytoplasmic domain N-terminal GST tagged FLT3 (564 to 993 end residues) expressed in baculovirus expression system using Srctide as substrate at 10 uM by mobility shift assay relative to control"}, "[23]": {"molecular_target": "Sigma intracellular receptor 2 (Homo sapiens, UniProt Q5BJF2)", "sequence (Q5BJF2 whole entry)": "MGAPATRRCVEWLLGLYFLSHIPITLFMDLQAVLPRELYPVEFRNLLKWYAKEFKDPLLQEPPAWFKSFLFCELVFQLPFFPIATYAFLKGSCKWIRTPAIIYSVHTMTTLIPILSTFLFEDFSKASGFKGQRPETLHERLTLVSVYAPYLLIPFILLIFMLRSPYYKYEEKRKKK", "experiment": "Binding affinity to sigma 2 receptor (unknown origin) assessed as inhibition constant"}, "[24]": {"molecular_target": "Sodium-dependent dopamine transporter (Homo sapiens) (UniProt Q01959)", "sequence (Q01959 whole entry)": "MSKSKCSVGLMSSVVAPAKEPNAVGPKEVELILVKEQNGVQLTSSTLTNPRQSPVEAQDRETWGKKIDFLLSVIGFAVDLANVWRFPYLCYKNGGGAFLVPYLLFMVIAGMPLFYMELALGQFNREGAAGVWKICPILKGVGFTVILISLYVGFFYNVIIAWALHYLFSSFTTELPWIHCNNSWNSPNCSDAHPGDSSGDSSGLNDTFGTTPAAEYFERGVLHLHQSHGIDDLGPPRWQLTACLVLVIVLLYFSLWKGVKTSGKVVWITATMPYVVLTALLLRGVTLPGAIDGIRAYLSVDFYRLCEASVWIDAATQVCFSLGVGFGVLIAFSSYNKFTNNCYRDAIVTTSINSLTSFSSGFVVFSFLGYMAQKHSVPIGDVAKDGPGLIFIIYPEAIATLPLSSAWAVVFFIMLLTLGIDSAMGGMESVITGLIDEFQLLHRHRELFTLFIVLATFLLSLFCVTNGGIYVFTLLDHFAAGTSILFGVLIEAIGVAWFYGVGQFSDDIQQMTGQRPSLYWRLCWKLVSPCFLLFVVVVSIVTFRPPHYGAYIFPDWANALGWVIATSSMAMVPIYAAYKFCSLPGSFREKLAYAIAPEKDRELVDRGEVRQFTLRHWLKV", "experiment": "Inhibition of DAT (unknown origin) at 10 uM by radioligand binding assay relative to control"}, "[25]": {"molecular_target": "Histone-lysine N-methyltransferase EHMT1 (Homo sapiens, UniProt Q9H9B1)", "experiment": "Inhibition of EHMT1 (unknown origin) using [3H-SAM] as substrate incubated for 1 hr by scintillation proximity assay"}, "[26]": {"molecular_target": "Aurora kinase A (Homo sapiens) (UniProt O14965)", "experiment": "Inhibition of full length human N-terminal GST tagged AurA (1 to 403 end residues) expressed in baculovirus expression system using kemptide as substrate at 10 uM by mobility shift assay relative to control"}, "[27]": {"molecular_target": "Death-associated protein kinase 1 (Homo sapiens) (UniProt P53355)", "experiment": "Inhibition of human catalytic domain N-terminal GST tagged DAPK1 (1 to 289 residues) expressed in baculovirus expression system using DAPK1tide as substrate at 10 uM by mobility shift assay relative to control"}, "[28]": {"molecular_target": "AMP-activated protein kinase (AMPK) alpha-1/beta-1/gamma-1 (Homo sapiens) (UniProt P54619+Q9Y478+Q13131)", "sequence (P54619 whole entry)": "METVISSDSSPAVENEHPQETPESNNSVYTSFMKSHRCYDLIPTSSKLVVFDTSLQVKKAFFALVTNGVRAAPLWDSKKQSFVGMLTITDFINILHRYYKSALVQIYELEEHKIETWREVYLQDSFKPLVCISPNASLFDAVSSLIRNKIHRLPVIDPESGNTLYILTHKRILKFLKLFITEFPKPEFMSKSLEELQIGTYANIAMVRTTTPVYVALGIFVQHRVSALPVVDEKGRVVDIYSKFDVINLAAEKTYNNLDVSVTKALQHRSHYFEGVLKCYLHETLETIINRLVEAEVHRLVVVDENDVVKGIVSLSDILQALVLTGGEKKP", "sequence (Q13131 whole entry partner)": "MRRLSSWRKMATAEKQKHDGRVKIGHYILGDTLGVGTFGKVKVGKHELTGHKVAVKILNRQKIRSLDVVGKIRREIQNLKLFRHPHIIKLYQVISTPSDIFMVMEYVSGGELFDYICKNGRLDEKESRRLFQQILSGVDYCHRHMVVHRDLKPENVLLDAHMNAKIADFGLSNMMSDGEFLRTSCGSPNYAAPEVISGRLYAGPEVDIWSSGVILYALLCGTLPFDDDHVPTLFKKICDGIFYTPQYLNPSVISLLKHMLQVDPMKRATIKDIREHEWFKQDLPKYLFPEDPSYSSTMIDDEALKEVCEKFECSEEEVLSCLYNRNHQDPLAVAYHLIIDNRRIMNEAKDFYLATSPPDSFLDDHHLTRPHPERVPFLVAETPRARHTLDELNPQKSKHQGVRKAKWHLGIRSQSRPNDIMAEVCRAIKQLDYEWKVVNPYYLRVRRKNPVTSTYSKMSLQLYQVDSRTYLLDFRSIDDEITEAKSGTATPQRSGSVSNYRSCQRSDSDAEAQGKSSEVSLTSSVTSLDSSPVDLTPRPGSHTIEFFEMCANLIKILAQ", "sequence (Q9Y478 2-270 partner limits assumed)": "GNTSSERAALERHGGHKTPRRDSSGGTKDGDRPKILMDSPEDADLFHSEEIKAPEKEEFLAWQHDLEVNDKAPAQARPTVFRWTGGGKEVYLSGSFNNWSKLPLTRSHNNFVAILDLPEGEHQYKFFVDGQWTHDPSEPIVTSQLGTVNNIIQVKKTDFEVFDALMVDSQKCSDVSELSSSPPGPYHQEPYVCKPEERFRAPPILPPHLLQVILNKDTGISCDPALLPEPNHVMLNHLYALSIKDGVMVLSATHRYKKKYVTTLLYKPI", "experiment": "Inhibition of full length human N-terminal GST tagged AMPK alpha1(1 to 550 end residues)/beta1 (1 to 270 end residues)/gamma1 (1 to 331 end residues) expressed in baculovirus expression system using SAMS peptide as substrate at 10 uM by mobility shift assay relative to control"}, "[29]": {"molecular_target": "RAC-alpha serine/threonine-protein kinase (Homo sapiens) (UniProt P31749)", "experiment": "Inhibition of human catalytic domain N-terminal GST tagged AKT1 (104 to 480 end residues) expressed in baculovirus expression system using crosstide as substrate at 10 uM by mobility shift assay relative to control"}},
  "note": "The source made the active and inactive calls. The rule behind the calls is not given here.",
  "data": [
    {"smiles": "CCCc1cc(C)[nH]c(=O)c1CNC(=O)c1cc(-c2ccc(N3CCN(C(C)C)CC3)nc2)cc2c1cnn2C(C)C", "values": [
      {"measurement": "Activity", "setting": "[1]", "result": "Non-Toxic"},
      {"measurement": "inhibition", "setting": "[2]", "result": 30, "unit": "%"},
      {"measurement": "Activity", "setting": "[3]", "result": "inactive"},
      {"measurement": "inhibition", "setting": "[4]", "result": 11, "unit": "%"},
      {"measurement": "Activity", "setting": "[5]", "result": "inactive"},
      {"measurement": "Activity", "setting": "[6]", "result": "Non-Toxic"},
      {"measurement": "IC50", "setting": "[7]", "result": "> 100", "unit": "µM"},
      {"measurement": "inhibition", "setting": "[8]", "result": 5, "unit": "%"},
      {"measurement": "inhibition", "setting": "[9]", "result": 48, "unit": "%"},
      {"measurement": "inhibition", "setting": "[10]", "result": -5, "unit": "%"},
      {"measurement": "inhibition", "setting": "[11]", "result": -2, "unit": "%"},
      {"measurement": "IC50", "setting": "[12]", "result": "> 100", "unit": "µM"},
      {"measurement": "IC50", "setting": "[13]", "result": "> 100", "unit": "µM"},
      {"measurement": "IC50", "setting": "[14]", "result": "> 100", "unit": "µM"},
      {"measurement": "IC50", "setting": "[15]", "result": "> 100", "unit": "µM"},
      {"measurement": "inhibition", "setting": "[16]", "result": -4, "unit": "%"},
      {"measurement": "IC50", "setting": "[17]", "result": "> 100", "unit": "µM"},
      {"measurement": "Cmax", "setting": "[18]", "result": 9.7, "unit": "µM"},
      {"measurement": "inhibition", "setting": "[19]", "result": 4, "unit": "%"},
      {"measurement": "inhibition", "setting": "[20]", "result": 14, "unit": "%"},
      {"measurement": "IC50", "setting": "[21]", "result": "> 100", "unit": "µM"},
      {"measurement": "inhibition", "setting": "[22]", "result": 16, "unit": "%"},
      {"measurement": "Ki", "setting": "[23]", "result": 0.065, "unit": "µM"},
      {"measurement": "inhibition", "setting": "[24]", "result": 36, "unit": "%"},
      {"measurement": "IC50", "setting": "[25]", "result": "> 100", "unit": "µM"},
      {"measurement": "inhibition", "setting": "[26]", "result": -4, "unit": "%"},
      {"measurement": "inhibition", "setting": "[27]", "result": -4, "unit": "%"},
      {"measurement": "inhibition", "setting": "[28]", "result": -3, "unit": "%"},
      {"measurement": "inhibition", "setting": "[29]", "result": -6, "unit": "%"}
    ]}
  ]
}
